Measured values as given in US20260325540A1 (priority 2023, published 2026).

Each compound was assayed against SARS-CoV-2 3CLpro (Severe acute respiratory syndrome coronavirus 2, UniProt P0DTD1) (assay: FRET based protease assay, SARS-CoV-2 3CL). Details: not given.
Type: biochemical, SARS-CoV-2 (strain BetaCoV/Wuhan/WIV04/2019)

SMILES	IC50
N#C[C@@H]1C[C@@H]2C(=O)NC[C@@H]2CCCC[C@H](NC(=O)C2CC(F)(F)C2)C(=O)N2C[C@@H]3CCC[C@@H]3[C@H]2C(=O)N1 [Example 84]	< 0.1 µM
CC(C)C[C@@H]1NC(=O)[C@@H](Cc2cccc(C(F)(F)F)c2)CCCC[C@H]2CNC(=O)[C@H]2C[C@@H](C#N)NC1=O [Example 40]	1 to 20 µM
CC1(C)[C@@H]2[C@H]3C(=O)N[C@H](C#N)C[C@@H]4C(=O)NC[C@@H]4/C=C/CC[C@H](NC(=O)C4CC(F)(F)C4)C(=O)N3C[C@@H]21 [Example 83]	< 0.1 µM
Cc1cc(C(=O)N[C@H]2CCCC[C@H]3CNC(=O)[C@H]3C[C@@H](C#N)NC(=O)[C@@H]3[C@@H]4[C@H](CN3C2=O)C4(C)C)no1 [Example 122]	< 0.1 µM
CC(C)C[C@@H]1NC(=O)[C@@H](Cc2ccccc2)CCCCC[C@H]2CNC(=O)[C@H]2C[C@@H](C#N)NC1=O [Example 50]	1 to 20 µM
CC(C)(C)OC(=O)N[C@H]1CCCC[C@H]2CNC(=O)[C@H]2C[C@@H](C#N)NC(=O)[C@@H]2[C@@H]3[C@H](CN2C1=O)C3(C)C [Example 72]	< 0.1 µM
CC1(C)[C@@H]2[C@H]3C(=O)N[C@H](C#N)C[C@@H]4C(=O)NC[C@@H]4CCCC[C@H](NC(=O)C4CCC(F)(F)CC4)C(=O)N3C[C@@H]21 [Example 68]	< 0.1 µM
CC1(C)[C@@H]2[C@H]3C(=O)N[C@H](C#N)C[C@@H]4C(=O)NC[C@@H]4CCCC[C@H](NC(=O)C4CCC4)C(=O)N3C[C@@H]21 [Example 76]	< 0.1 µM
CC(C)C[C@@H]1NC(=O)[C@@H](NC(=O)OC(C)(C)C)CCC[C@H]2CNC(=O)[C@@H]2C[C@@H](C=O)NC1=O [Example 19]	< 0.1 µM
CC1(C)[C@@H]2[C@H]3C(=O)N[C@H](C#N)C[C@@H]4C(=O)NC[C@@H]4CCCC[C@H](Nc4nccc(C(F)(F)F)n4)C(=O)N3C[C@@H]21 [Example 162]	< 0.1 µM
CC(C)C[C@@H]1NC(=O)CCCC[C@@H]2CNC(=O)[C@@H]2C[C@@H](C=O)NC1=O [Example 1]	1 to 20 µM
CC(C)C[C@@H]1NC(=O)[C@@H](Cc2ccc(F)cc2)CCCC[C@H]2CNC(=O)[C@H]2C[C@@H](C#N)NC1=O [Example 43]	1 to 20 µM
CC(C)(C)OC(=O)N[C@H]1CCCC[C@H]2CNC(=O)[C@H]2C[C@@H](C#N)NC(=O)[C@@H]2CC3(CCN2C1=O)CC3 [Example 132]	< 0.1 µM
CC(C)C[C@@H]1NC(=O)CCCCC[C@H]2CNC(=O)[C@H]2C[C@@H](C#N)NC1=O [Example 38]	1 to 20 µM
CC(C)C[C@@H]1NC(=O)[C@@H](Cc2ccccc2)CCC[C@H]2CNC(=O)[C@@H]2C[C@@H](C=O)NC1=O [Example 17]	0.1 to 1 µM
CC(C)C[C@@H]1NC(=O)[C@@H](C2CCCC2)CCC[C@H]2CNC(=O)[C@@H]2C[C@@H](C#N)NC1=O [Example 28]	1 to 20 µM
CC(C)C[C@@H]1NC(=O)[C@@H](CC2CCCC2)CCC[C@H]2CNC(=O)[C@@H]2C[C@@H](C=O)NC1=O [Example 18]	0.1 to 1 µM
CN1C[C@@H]2CCCC[C@H](NC(=O)OC(C)(C)C)C(=O)N3C[C@H]4[C@@H]([C@H]3C(=O)N[C@H](C#N)C[C@@H]2C1=O)C4(C)C [Example 140]	0.1 to 1 µM
CC(C)C[C@@H]1NC(=O)CCCCC[C@H]2CNC(=O)[C@H]2C[C@@H](C=O)NC1=O [Example 30]	0.1 to 1 µM
CC(C)C[C@@H]1NC(=O)CCCCCC[C@@H]2CNCC(=O)[C@H]2C[C@@H](C=O)NC1=O [Example 51]	1 to 20 µM
CC(C)C[C@@H]1NC(=O)[C@@H](NC(=O)C(C)(C)C)CC/C=C/[C@H]2CNC(=O)[C@H]2C[C@@H](C#N)NC1=O [Example 58]	< 0.1 µM
CC(C)C[C@@H]1NC(=O)[C@@H](C2CCCC2)CCCC[C@H]2CNC(=O)[C@H]2C[C@@H](C#N)NC1=O [Example 41]	> 20 µM
CC(C)C[C@@H]1NC(=O)[C@@H](Cc2ccccc2)CCCC[C@@H]2CNC(=O)[C@@H]2C[C@@H](C=O)NC1=O [Example 35]	1 to 20 µM

Each compound was assayed against MERS-CoV 3CLpro (Middle East respiratory syndrome-related coronavirus, UniProt K9N638) (assay: biochemical). Details: MERS IC50, 75 nM MERS-CoV 3CLpro, 6 μM peptide 1 substrate, 25° C., 1.5 hrs, pH 7.5.
Sequence of MERS-CoV 3CLpro (K9N638 3248-3553 limits assumed): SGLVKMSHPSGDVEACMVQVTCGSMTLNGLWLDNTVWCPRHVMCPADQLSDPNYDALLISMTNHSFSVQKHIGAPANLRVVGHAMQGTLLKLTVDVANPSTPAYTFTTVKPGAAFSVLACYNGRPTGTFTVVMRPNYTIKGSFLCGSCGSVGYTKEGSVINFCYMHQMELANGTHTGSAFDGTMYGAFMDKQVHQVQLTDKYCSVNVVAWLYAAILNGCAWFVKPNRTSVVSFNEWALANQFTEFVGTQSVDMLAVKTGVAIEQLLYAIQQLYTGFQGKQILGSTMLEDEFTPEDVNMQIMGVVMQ

SMILES	IC50
N#C[C@@H]1C[C@@H]2C(=O)NC[C@@H]2CCCC[C@H](NC(=O)C2CC(F)(F)C2)C(=O)N2C[C@@H]3CCC[C@@H]3[C@H]2C(=O)N1 [Example 84]	0.1 to 1 µM
CC(C)C[C@@H]1NC(=O)[C@@H](Cc2cccc(C(F)(F)F)c2)CCCC[C@H]2CNC(=O)[C@H]2C[C@@H](C#N)NC1=O [Example 40]	1 to 20 µM
CC1(C)[C@@H]2[C@H]3C(=O)N[C@H](C#N)C[C@@H]4C(=O)NC[C@@H]4/C=C/CC[C@H](NC(=O)C4CC(F)(F)C4)C(=O)N3C[C@@H]21 [Example 83]	< 0.1 µM
Cc1cc(C(=O)N[C@H]2CCCC[C@H]3CNC(=O)[C@H]3C[C@@H](C#N)NC(=O)[C@@H]3[C@@H]4[C@H](CN3C2=O)C4(C)C)no1 [Example 122]	< 0.1 µM
CC(C)C[C@@H]1NC(=O)[C@@H](Cc2ccccc2)CCCCC[C@H]2CNC(=O)[C@H]2C[C@@H](C#N)NC1=O [Example 50]	1 to 20 µM
CC(C)(C)OC(=O)N[C@H]1CCCC[C@H]2CNC(=O)[C@H]2C[C@@H](C#N)NC(=O)[C@@H]2[C@@H]3[C@H](CN2C1=O)C3(C)C [Example 72]	< 0.1 µM
CC1(C)[C@@H]2[C@H]3C(=O)N[C@H](C#N)C[C@@H]4C(=O)NC[C@@H]4CCCC[C@H](NC(=O)C4CCC(F)(F)CC4)C(=O)N3C[C@@H]21 [Example 68]	< 0.1 µM
CC(C)C[C@@H]1NC(=O)[C@@H](Cc2ccccc2)CCC[C@H]2CNC(=O)[C@@H]2C[C@@H](C=O)NC1=O [Example 10]	1 to 20 µM
CC1(C)[C@@H]2[C@H]3C(=O)N[C@H](C#N)C[C@@H]4C(=O)NC[C@@H]4CCCC[C@H](NC(=O)C4CCC4)C(=O)N3C[C@@H]21 [Example 76]	0.1 to 1 µM
CC(C)C[C@@H]1NC(=O)[C@@H](NC(=O)OC(C)(C)C)CCC[C@H]2CNC(=O)[C@@H]2C[C@@H](C=O)NC1=O [Example 19]	0.1 to 1 µM
CC1(C)[C@@H]2[C@H]3C(=O)N[C@H](C#N)C[C@@H]4C(=O)NC[C@@H]4CCCC[C@H](Nc4nccc(C(F)(F)F)n4)C(=O)N3C[C@@H]21 [Example 162]	0.1 to 1 µM
CC(C)C[C@@H]1NC(=O)CCCC[C@@H]2CNC(=O)[C@@H]2C[C@@H](C=O)NC1=O [Example 1]	> 20 µM
CC(C)C[C@@H]1NC(=O)[C@@H](Cc2ccc(F)cc2)CCCC[C@H]2CNC(=O)[C@H]2C[C@@H](C#N)NC1=O [Example 43]	1 to 20 µM
CC(C)(C)OC(=O)N[C@H]1CCCC[C@H]2CNC(=O)[C@H]2C[C@@H](C#N)NC(=O)[C@@H]2CC3(CCN2C1=O)CC3 [Example 132]	0.1 to 1 µM
CC(C)C[C@@H]1NC(=O)CCCCC[C@H]2CNC(=O)[C@H]2C[C@@H](C#N)NC1=O [Example 38]	> 20 µM
CC(C)C[C@@H]1NC(=O)[C@@H](Cc2ccccc2)CCC[C@H]2CNC(=O)[C@@H]2C[C@@H](C=O)NC1=O [Example 17]	0.1 to 1 µM
CC(C)C[C@@H]1NC(=O)[C@@H](C2CCCC2)CCC[C@H]2CNC(=O)[C@@H]2C[C@@H](C#N)NC1=O [Example 28]	1 to 20 µM
CC(C)C[C@@H]1NC(=O)[C@@H](CC2CCCC2)CCC[C@H]2CNC(=O)[C@@H]2C[C@@H](C=O)NC1=O [Example 18]	0.1 to 1 µM
CN1C[C@@H]2CCCC[C@H](NC(=O)OC(C)(C)C)C(=O)N3C[C@H]4[C@@H]([C@H]3C(=O)N[C@H](C#N)C[C@@H]2C1=O)C4(C)C [Example 140]	0.1 to 1 µM
CC(C)C[C@@H]1NC(=O)CCCCC[C@H]2CNC(=O)[C@H]2C[C@@H](C=O)NC1=O [Example 30]	1 to 20 µM
CC(C)C[C@@H]1NC(=O)CCCCCC[C@@H]2CNCC(=O)[C@H]2C[C@@H](C=O)NC1=O [Example 51]	> 20 µM
CC(C)C[C@@H]1NC(=O)[C@@H](NC(=O)C(C)(C)C)CC/C=C/[C@H]2CNC(=O)[C@H]2C[C@@H](C#N)NC1=O [Example 58]	0.1 to 1 µM
CC(C)(C)OC(=O)N[C@H]1CCCC[C@H]2CCNC(=O)[C@H]2C[C@@H](C#N)NC(=O)[C@@H]2[C@@H]3[C@H](CN2C1=O)C3(C)C [Example 96]	< 0.1 µM
